The source of these data is ChEMBL document CHEMBL3507680, “University of Dundee, Gates Library screen for HepG2 cell viability”.

The structures appear in SMILES notation.

A short description of the data set: Human HepG2 cell viability assay in 384 well format. Format: toxicity, cell-based. Further details: dose 125 nL, time 70.5 hour; cytotoxicity at 70.5 h: concentration not given beside the values. The following applies: HepG2 cells, read-out: Inhibition.
On to `CCc1nnc(CN2CCC(N3CCN(CC)C3=O)CC2)o1`, for which the cytotoxicity at 70.5 h is -16.5%.

With `Cc1nc(CN2CCN(C(=O)c3sccc3C)CC2)cs1`, the cytotoxicity at 70.5 h is -11.5%.

Turning to `COc1ccc(CCC(=O)N2CCCCC2Cn2cccn2)cc1F` (stereo not drawn), the cytotoxicity at 70.5 h was -7.2%.

Take `CCCn1[nH]cc/c1=N\C(=O)CN1CCc2cnc(C(C)C)nc2C1`: the cytotoxicity at 70.5 h was -3.5%.

For the compound `CC(Cn1cccn1)NC(=O)NCc1ccc(S(C)(=O)=O)cc1` (stereo not drawn), the cytotoxicity at 70.5 h was 11.7%.

For `COc1ccc(C(=O)N(C)Cc2nnc3ccccn23)c(OC)c1OC`, the cytotoxicity at 70.5 h is -11.4%.

Regarding `Cn1ccnc1CN1CCN(CC(O)c2ccc(F)cc2)CC1` (stereo not drawn), the cytotoxicity at 70.5 h is -3.86%.

Regarding `Nc1nc(CN2CCOC(Cn3cccn3)C2)nc2ccccc12` (stereo not drawn), the cytotoxicity at 70.5 h is -11.8%.

As for `CC(=O)Nc1nc(CN2CCOC(Cn3cccn3)C2)cs1` (stereo not drawn), the cytotoxicity at 70.5 h was -5.08%.

Regarding `Cc1ccc(C(=O)NC2CCN(C(=O)NCc3ccccn3)CC2)o1`, the cytotoxicity at 70.5 h is -8.93%.

For `CCN1CCN(C2CCN(Cc3nnc(C4CC4)o3)CC2)C1=O`, the cytotoxicity at 70.5 h came out at 12.8%.

For the compound `Cc1cnn(CC2CCCN2C(=O)c2n[nH]c(=O)c3ccccc23)c1` (stereo not drawn), the cytotoxicity at 70.5 h was -7.98%.

For the compound `O=C(CCc1ccc(F)c(F)c1)N1CCCCC1Cn1cccn1` (stereo not drawn), the cytotoxicity at 70.5 h is -7.69%.

On to `O=C(CCc1ccsc1)N1CCCCC1Cn1cccn1` (stereo not drawn), for which the cytotoxicity at 70.5 h is -9.96%.

In the case of `CC(C)c1ccc(C(O)CN2CCN(Cc3nccn3C)CC2)cc1` (stereo not drawn), the cytotoxicity at 70.5 h is -3.6%.

As for `CN(Cc1ccc(-n2cccn2)cc1)CC1CCCN1c1cccnn1` (stereo not drawn), the cytotoxicity at 70.5 h is -10.7%.

As for `CCc1n[nH]c(C2CN(C(=O)c3ccc4c(c3)CCCC4)CCO2)n1` (stereo not drawn), the cytotoxicity at 70.5 h was -8.34%.

Turning to `CCc1n[nH]c(C2CN(C(=O)c3ccc4c(c3)CCC4)CCO2)n1` (stereo not drawn), the cytotoxicity at 70.5 h is -2.27%.

Turning to `Cc1cnn(CC2CN(Cc3nc4ccccc4c(=O)[nH]3)CCO2)c1` (stereo not drawn), the cytotoxicity at 70.5 h is -4.67%.

Take `Cc1cnn(CC2CN(CCCc3nc4ccccc4o3)CCO2)c1` (stereo not drawn): the cytotoxicity at 70.5 h is -0.695%.

Turning to `O=C(NCCn1ccnc1)NCC(c1ccco1)N1CCCC1` (stereo not drawn), the cytotoxicity at 70.5 h amounted to 9.47%.

As to `Cc1cnn(CC2CCCN2C(=O)c2csc(C(C)C)n2)c1` (stereo not drawn), the cytotoxicity at 70.5 h is 17.5%.

Turning to `O=C(CNCCn1cccn1)NCC1(c2ccccc2)CCCC1`, the cytotoxicity at 70.5 h is 0.609%.

Turning to `O=C(CNCCn1cccn1)NCC1(c2ccccc2)CCOCC1`, the cytotoxicity at 70.5 h was -7.33%.

For the compound `c1ccc2oc(CCCN3CCOC(Cn4cncn4)C3)nc2c1` (stereo not drawn), the cytotoxicity at 70.5 h worked out at 14.6%.

For the compound `O=C(NCCNc1ccc(C(F)(F)F)cn1)c1ccc(Br)cc1`, the cytotoxicity at 70.5 h is 1.55%.

In the case of `O=C(NCCNc1ccc(C(F)(F)F)cn1)c1ccc(F)cc1Cl`, the cytotoxicity at 70.5 h is -3.01%.

Take `O=C(NCCNc1ccc(C(F)(F)F)cn1)c1ccc(Cl)cc1F`: the cytotoxicity at 70.5 h was 1.38%.

In the case of `CCn1cc(NC(=O)NCCN2CCc3ccccc3C2)cn1`, the cytotoxicity at 70.5 h turned out to be 4.14%.

Take `CCN1CC(C(=O)NCc2cccnc2-n2cccn2)CC1=O` (stereo not drawn): the cytotoxicity at 70.5 h was -7.76%.

As for `O=C(CCn1cncn1)NCC(c1ccco1)N1CCCC1` (stereo not drawn), the cytotoxicity at 70.5 h is -4.48%.

Take `O=C(CCc1ccsc1)N1CCC(N2CCNC2=O)CC1`: the cytotoxicity at 70.5 h stood at 3.98%.

Consider `CCc1nc(C2CCCN(C(=O)c3ccc(F)cc3)C2)no1` (stereo not drawn), for which the cytotoxicity at 70.5 h is -0.043%.

In the case of `Cc1nc2c(c(C)c1CC(=O)NCc1ccccc1F)c(=O)[nH]n2C`, the cytotoxicity at 70.5 h is -7.35%.

For the compound `Cc1nc2c(c(C)c1CC(=O)NCc1cccs1)c(=O)[nH]n2C`, the cytotoxicity at 70.5 h was -1.43%.

In the case of `Cc1cnn(CC2CCCN2C(=O)c2csc(C3CC3)n2)c1` (stereo not drawn), the cytotoxicity at 70.5 h was -0.994%.

For the compound `CCc1nc(C2CCCN(C(=O)c3ccc(O)nc3)C2)no1` (stereo not drawn), the cytotoxicity at 70.5 h is 3.29%.

In the case of `CCc1nc(C2CCCN(C(=O)NCCOC)C2)no1` (stereo not drawn), the cytotoxicity at 70.5 h came to 21.2%.

In the case of `CCn1c(C)nnc1CN(C)C1CCN(CC2CCC2)C1` (stereo not drawn), the cytotoxicity at 70.5 h was determined as 26.1%.

For `COc1ccsc1C(=O)N1CCCN(Cc2cscn2)CC1`, the cytotoxicity at 70.5 h was -5.36%.

`CC(=O)N(Cc1ncc(C)o1)C1CCN(Cc2ccccc2F)C1` (stereo not drawn): the cytotoxicity at 70.5 h was -2.68%.

As to `CC(CNC(=O)Nc1cn[nH]c1)N1CCCC1` (stereo not drawn), the cytotoxicity at 70.5 h stood at 2.24%.

In the case of `Cc1nc(C)n(CC2CCCN(CC3CCCCC3)C2)n1` (stereo not drawn), the cytotoxicity at 70.5 h was -1.64%.

In the case of `COc1ccnc(N2CCN(C(=O)Cc3ccn(C(C)C)n3)CC2)n1`, the cytotoxicity at 70.5 h is -5.11%.

On to `Cc1ccsc1C(=O)N1CCCN(Cc2cscn2)CC1`, for which the cytotoxicity at 70.5 h was -2.76%.

As for `CCc1nc(C2CCCN(C(=O)c3c(C)noc3C)C2)no1` (stereo not drawn), the cytotoxicity at 70.5 h amounted to 20.6%.

Take `Cc1nc(C)n(CC2CCCN2CCC(=O)N2CCCCC2)n1` (stereo not drawn): the cytotoxicity at 70.5 h is -5.35%.

`c1ccc(Cn2cc(CNC3CCc4ncnn4C3)cn2)cc1` (stereo not drawn): the cytotoxicity at 70.5 h was -7.61%.

`O=C(c1csc(Br)c1)N1CCCC(n2ccnc2)C1` (stereo not drawn): the cytotoxicity at 70.5 h was determined as 12.4%.

`Cc1csc(C2CCCCN2C(=O)CN(C)Cc2ccccc2)n1` (stereo not drawn): the cytotoxicity at 70.5 h was -8.36%.

Regarding `COc1ccc(CN2CCCC(Cn3nc(C)nc3C)C2)cc1F` (stereo not drawn), the cytotoxicity at 70.5 h is -8.47%.

Take `Cc1oc(C)c(C(=O)NCc2cccc(NC(=O)CN(C)C)c2)c1C`: the cytotoxicity at 70.5 h is -8.3%.

Turning to `CC(=O)N(Cc1noc(C)n1)C1CCN(Cc2ccccc2C#N)C1` (stereo not drawn), the cytotoxicity at 70.5 h is -5.45%.

Turning to `O=C(c1ccccc1OCC1CC1)N1CCCC(n2ccnc2)C1` (stereo not drawn), the cytotoxicity at 70.5 h was -9.12%.

As to `Cc1ccc(N2CCCC(NCc3ccc(C)o3)C2)nn1` (stereo not drawn), the cytotoxicity at 70.5 h is -7.71%.

Consider `CCCn1[nH]cc/c1=N\C(=O)CN1CCc2c(nc(C(C)C)n2C)C1`, for which the cytotoxicity at 70.5 h was determined as 18%.

As to `Cc1cccc(-n2cc(C(=O)N3CCCC(n4ccnc4)C3)nn2)c1` (stereo not drawn), the cytotoxicity at 70.5 h amounted to 15.2%.

Take `CC(C)c1nc2c(n1C)CCN(CC(=O)Nc1ccc(Cl)cn1)C2`: the cytotoxicity at 70.5 h was -14.9%.

Take `COc1ccc(CC(=O)N(C)Cc2nnc3ccccn23)cc1`: the cytotoxicity at 70.5 h was -17.4%.

On to `Cc1cccc(-n2cc(C(=O)N3CCCC(n4cccn4)C3)nn2)c1` (stereo not drawn), for which the cytotoxicity at 70.5 h is -13.8%.

For the compound `Cc1cc(CN2CCN(C(=O)c3sccc3C3CC3)CC2)on1`, the cytotoxicity at 70.5 h is -13.6%.

Regarding `O=C1NCCN1C1CCN(CCc2cccs2)CC1`, the cytotoxicity at 70.5 h is -11.4%.

In the case of `CCN(Cc1nc2c(cnn2C)c(=O)[nH]1)Cc1cccs1`, the cytotoxicity at 70.5 h is -7.33%.

As for `CCc1ccc(OCC(O)CN2CCN(S(C)(=O)=O)CC2)cc1` (stereo not drawn), the cytotoxicity at 70.5 h was -5.82%.

Regarding `CC(Cn1cccn1)NC(=O)CCc1ccc(S(N)(=O)=O)cc1` (stereo not drawn), the cytotoxicity at 70.5 h is -15.1%.

`COc1ccc(C(=O)NCCc2nnc3ccccn23)c(OC)c1`: the cytotoxicity at 70.5 h came to 8%.

Turning to `Cc1cnn(CC2CCCN2C(=O)c2cc3ccccc3[nH]2)c1` (stereo not drawn), the cytotoxicity at 70.5 h was determined as 8.1%.

As for `O=C(CCc1cccs1)N1CCCCC1Cn1cccn1` (stereo not drawn), the cytotoxicity at 70.5 h was -5.08%.

With `COc1ccc(CNC(=O)NC(C)Cn2cccn2)cc1O` (stereo not drawn), the cytotoxicity at 70.5 h was -16.1%.

As to `CCc1n[nH]c(C2CN(C(=O)c3csnn3)CCO2)n1` (stereo not drawn), the cytotoxicity at 70.5 h is -18.6%.

Regarding `CCN1CCN(C2CCN(Cc3ncc(C(C)(C)C)o3)CC2)C1=O`, the cytotoxicity at 70.5 h is -8.55%.

For `COc1c(CNCC(O)c2cccc(F)c2)c(C(C)C)nn1C` (stereo not drawn), the cytotoxicity at 70.5 h is 2.55%.

On to `CC(=O)N(Cc1noc(C)n1)C1CCN(Cc2cc(C)on2)C1` (stereo not drawn), for which the cytotoxicity at 70.5 h was -2.83%.
